From PubChem BioAssay AID276 (DTP/NCI, 2004) come the findings set out here.

Where “and” joins values, the source holds several entries; their conditions need not be identical. Equal entries are not always repeated. Toxic doses and inconclusive results are not listed.

The test system of the assay is B6C3F1 mice, Lewis lung carcinoma iv, survival T/C. Kind of assay: NCI In Vivo Anticancer Drug Screen. Data for tumor model Lewis Lung Carcinoma (intravenous) in B6C3F1 mice. The note with it: endpoint: median survival time, higher = longer survival. The gist of the method: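 T/C ratio derived from survival of compound-treated versus vehicle-treated mice bearing transplantable tumors.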

Setting [1] is: dose: 6.25 mg/kg/injection, schedule: Q01DX009 (ip), vehicle: saline.
Setting [2] is: dose: 12.5 mg/kg/injection, schedule: Q01DX009 (ip), vehicle: saline.
[3] abbreviates: dose: 25.0 mg/kg/injection, schedule: Q01DX009 (ip), vehicle: saline.
The mark [4] stands for this setting: dose: 50.0 mg/kg/injection, schedule: Q01DX009 (ip), vehicle: saline.
Setting [5] is: dose: 100.0 mg/kg/injection, schedule: Q01DX009 (ip), vehicle: saline.
The mark [6] stands for this setting: dose: 200.0 mg/kg/injection, schedule: Q01DX009 (ip), vehicle: saline.
The mark [7] stands for this setting: dose: 3.12 mg/kg/injection, schedule: Q01DX009 (ip), vehicle: saline.
[8] abbreviates: dose: 6.25 mg/kg/injection, schedule: Q01DX009 (ip), vehicle: saline with Tween-80.
[9] abbreviates: dose: 12.5 mg/kg/injection, schedule: Q01DX009 (ip), vehicle: saline with Tween-80.
The mark [10] stands for this setting: dose: 25.0 mg/kg/injection, schedule: Q01DX009 (ip), vehicle: saline with Tween-80.
Where [11] appears, read: dose: 50.0 mg/kg/injection, schedule: Q01DX009 (ip), vehicle: saline with Tween-80.
Setting [12] is: dose: 100.0 mg/kg/injection, schedule: Q01DX009 (ip), vehicle: saline with Tween-80.
Where [13] appears, read: dose: 25.0 mg/kg/injection, schedule: Q01DX009 (ip), vehicle: Klucel (hydroxypropylcellulose) (HPC).
Where [14] appears, read: dose: 50.0 mg/kg/injection, schedule: Q01DX009 (ip), vehicle: Klucel (hydroxypropylcellulose) (HPC).
[15] abbreviates: dose: 100.0 mg/kg/injection, schedule: Q01DX009 (ip), vehicle: Klucel (hydroxypropylcellulose) (HPC).

As for `C=C/C(C)=C/[C@H](C)C(=O)C[C@H](O)CC1CC(=O)NC(=O)C1`, the T/C (dose: 6.25 mg/kg/injection, schedule: Q01DX009 (ip), vehicle: other) was 96 % of control; the T/C (dose: 12.5 mg/kg/injection, schedule: Q01DX009 (ip), vehicle: other) was 96 % of control; the T/C (dose: 25.0 mg/kg/injection, schedule: Q01DX009 (ip), vehicle: other) is 97 % of control; the T/C (dose: 50.0 mg/kg/injection, schedule: Q01DX009 (ip), vehicle: other) is 92 % of control; the T/C (dose: 100.0 mg/kg/injection, schedule: Q01DX009 (ip), vehicle: other) is 96 % of control; the T/C (dose: 200.0 mg/kg/injection, schedule: Q01DX009 (ip), vehicle: other) is 100 % of control.
On to `[Cl][Pt+2][Cl].[NH-]CC1(C[NH-])CCC1`, for which the T/C runs as follows: (dose: 1.56 mg/kg/injection, schedule: Q01DX009 (ip), vehicle: suspension in saline) 96 % of control; (dose: 3.12 mg/kg/injection, schedule: Q01DX009 (ip), vehicle: suspension in saline) 105 % of control.
Consider `CN(Cc1cnc2nc(N)nc(N)c2n1)c1ccc(C(=O)N[C@@H](CCC(=O)O)C(=O)O)cc1`, for which the T/C (dose: 1.0 mg/kg/injection, schedule: Q01DX009 (ip), vehicle: sodium bicarbonate) is 102 % of control; the T/C (dose: 2.0 mg/kg/injection, schedule: Q01DX009 (ip), vehicle: sodium bicarbonate) is 107 % of control and 88 % of control; the T/C (dose: 4.0 mg/kg/injection, schedule: Q01DX009 (ip), vehicle: sodium bicarbonate) is 96 % of control and 102 % of control.
`O=NN(CCCl)C(=O)NCCO`: the T/C was 107 % of control (dose: 0.78 mg/kg/injection, schedule: Q01DX009 (ip), vehicle: water); 184 % of control and 213 % of control and 215 % of control (dose: 3.12 mg/kg/injection, schedule: Q01DX009 (ip), vehicle: water); 178 % of control and 312 % of control (dose: 6.25 mg/kg/injection, schedule: Q01DX009 (ip), vehicle: water); 90 % of control (dose: 12.5 mg/kg/injection, schedule: Q01DX009 (ip), vehicle: water).
Take `O=[N+]([O-])c1c(O)c(CNCCCO)cc(CNCCCO)c1O`: the T/C is, setting by setting: under setting [1], 100 % of control; under setting [2], 113 % of control; under setting [3], 102 % of control.
As for `CC(=O)NCCCCCCNC(C)=O`, the T/C by setting is: under setting [3], 92 % of control and 96 % of control; under setting [4], 90 % of control and 92 % of control; under setting [5], 88 % of control and 106 % of control; under setting [6], 100 % of control and 102 % of control; (dose: 400.0 mg/kg/injection, schedule: Q01DX009 (ip), vehicle: saline) 96 % of control and 103 % of control; (dose: 800.0 mg/kg/injection, schedule: Q01DX009 (ip), vehicle: saline) 102 % of control and 105 % of control.
With `CC1=C(O)C(=O)[C@@H]2O[C@@H]2C1=O`, the T/C (dose: 0.78 mg/kg/injection, schedule: Q01DX009 (ip), vehicle: saline) was 94 % of control and 107 % of control; the T/C (dose: 1.56 mg/kg/injection, schedule: Q01DX009 (ip), vehicle: saline) is 89 % of control and 103 % of control; the T/C under setting [7] is 92 % of control and 104 % of control; the T/C under setting [1] was 95 % of control and 104 % of control; the T/C under setting [2] was 100 % of control and 101 % of control.
Regarding `O=[N+]([O-])c1ccc(Sc2ccncn2)c([N+](=O)[O-])c1`, the T/C runs as follows: under setting [8], 90 % of control; under setting [9], 102 % of control; under setting [10], 95 % of control; under setting [11], 86 % of control; under setting [12], 99 % of control.
For `Cc1c(-c2ccc(C3CCCCC3)cc2)nc2ccc(F)cc2c1C(=O)O`, the T/C reads like this: under setting [13], 96 % of control; under setting [14], 110 % of control; under setting [15], 118 % of control; (dose: 200.0 mg/kg/injection, schedule: Q01DX009 (ip), vehicle: Klucel (hydroxypropylcellulose) (HPC)) 112 % of control.
For `C(C#CCN1CCOCC1)#CCN1CCOCC1`, the T/C by setting is: (dose: 6.25 mg/kg/injection, schedule: Q01DX009 (ip), vehicle: Klucel (hydroxypropylcellulose) (HPC)) 108 % of control; (dose: 12.5 mg/kg/injection, schedule: Q01DX009 (ip), vehicle: Klucel (hydroxypropylcellulose) (HPC)) 101 % of control; under setting [13], 102 % of control; under setting [14], 100 % of control; under setting [15], 102 % of control; (dose: 400.0 mg/kg/injection, schedule: Q01DX009 (ip), vehicle: Klucel (hydroxypropylcellulose) (HPC)) 106 % of control.
As for `CCOC(=O)Nc1cc2c(c(N)n1)N=C(c1ccc(Cl)cc1Cl)CN2`, the T/C is, setting by setting: under setting [8], 97 % of control; under setting [9], 113 % of control.
For `C=C(C)C1C2CC3(C)C4(CO4)C4OC4C3(O)C1C(=O)O2` (stereo unspecified), the T/C runs as follows: (dose: 0.25 mg/kg/injection, schedule: Q01DX008 (ip), vehicle: Klucel (hydroxypropylcellulose) (HPC)) 108 % of control; (dose: 0.5 mg/kg/injection, schedule: Q01DX008 (ip), vehicle: Klucel (hydroxypropylcellulose) (HPC)) 102 % of control; (dose: 1.0 mg/kg/injection, schedule: Q01DX008 (ip), vehicle: Klucel (hydroxypropylcellulose) (HPC)) 108 % of control; (dose: 2.0 mg/kg/injection, schedule: Q01DX008 (ip), vehicle: Klucel (hydroxypropylcellulose) (HPC)) 105 % of control.
Turning to `CCC(C(=O)O)C(=O)O.[NH2-].[NH2-].[Pt+2]`, the T/C under setting [7] was 102 % of control; the T/C under setting [1] was 103 % of control; the T/C under setting [2] was 120 % of control; the T/C under setting [3] is 112 % of control and 120 % of control; the T/C under setting [4] was 109 % of control and 118 % of control.
Turning to `O=Cc1c(O)c2ccccc2[nH]c1=O`, the T/C reads like this: under setting [8], 107 % of control; under setting [9], 105 % of control; under setting [10], 113 % of control; under setting [11], 107 % of control; under setting [12], 116 % of control.
Consider `FC(F)(F)c1nc2nc(Cl)c(Cl)nc2[nH]1`, for which the T/C is 98 % of control under setting [8], 106 % of control under setting [9], 106 % of control under setting [10] and 93 % of control under setting [11].
On to `COC1=C(C)C(=O)C2=C(C1=O)C1C3CC4=C(C(=O)C(OC)=C(C)C4=O)C(CNC(=O)C(C)=O)N3C(C#N)C(C2)N1C` (stereo unspecified), for which the T/C by setting is: (dose: 0.12 mg/kg/injection, schedule: Q01DX009 (ip), vehicle: Klucel (hydroxypropylcellulose) (HPC)) 101 % of control; (dose: 0.25 mg/kg/injection, schedule: Q01DX009 (ip), vehicle: Klucel (hydroxypropylcellulose) (HPC)) 108 % of control; (dose: 0.5 mg/kg/injection, schedule: Q01DX009 (ip), vehicle: Klucel (hydroxypropylcellulose) (HPC)) 107 % of control; (dose: 1.0 mg/kg/injection, schedule: Q01DX009 (ip), vehicle: Klucel (hydroxypropylcellulose) (HPC)) 113 % of control.
For the compound `CN(C)CCN1C(=O)c2cccc3cc(N)cc(c23)C1=O`, the T/C (dose: 1.0 mg/kg/injection, schedule: Q01DX009 (ip), vehicle: saline with Tween-80) is 115 % of control; the T/C (dose: 2.0 mg/kg/injection, schedule: Q01DX009 (ip), vehicle: saline with Tween-80) was 106 % of control; the T/C (dose: 4.0 mg/kg/injection, schedule: Q01DX009 (ip), vehicle: saline with Tween-80) is 111 % of control; the T/C (dose: 8.0 mg/kg/injection, schedule: Q01DX009 (ip), vehicle: saline with Tween-80) was 119 % of control.
For `COC(OC(CO)C(O)S(=O)(=O)O)C(O)S(=O)(=O)O` (stereo unspecified), the T/C is, setting by setting: under setting [2], 109 % of control; under setting [3], 106 % of control; under setting [4], 97 % of control; under setting [5], 102 % of control; under setting [6], 98 % of control.
As to `Cc1cc(NCCCCCCCCNc2cc(C)nc3cc(N(C)C)ccc23)c2ccc(N(C)C)cc2n1`, the T/C by setting is: (dose: 3.12 mg/kg/injection, schedule: Q01DX009 (ip), vehicle: distilled water + Tween-80 + alcohol) 102 % of control; (dose: 6.25 mg/kg/injection, schedule: Q01DX009 (ip), vehicle: distilled water + Tween-80 + alcohol) 102 % of control; (dose: 12.5 mg/kg/injection, schedule: Q01DX009 (ip), vehicle: distilled water + Tween-80 + alcohol) 109 % of control; (dose: 25.0 mg/kg/injection, schedule: Q01DX009 (ip), vehicle: distilled water + Tween-80 + alcohol) 111 % of control and 118 % of control.
